Publication PMC10648541, “Design, Synthesis, and Antiproliferative Activity of Selective Histone Deacetylases 6 Inhibitors Containing a Tetrahydropyridopyrimidine Scaffold” (Molecules, 2023)

Key:
HDAC3 = molecular target: T1, HDAC3 (Homo sapiens, UniProt O15379); assay: In vitro HDAC enzyme assay (Reaction Biology Corporation), HDAC3; assay type: biochemical; details: Table 2 isozyme screen; duplicate, SD < 15%
T1 construct: purchased Reaction Biology Corporation

HDAC4 = molecular target: T2, HDAC4 (Homo sapiens, UniProt P56524); assay: In vitro HDAC enzyme assay (Reaction Biology Corporation), HDAC4; assay type: biochemical; details: Table 2 isozyme screen; duplicate, SD < 15%
T2 construct: purchased Reaction Biology Corporation

HL60 = assay: Antiproliferative assay (Alamar blue, 72 h), HL60; assay type: cell-based; details: Homo sapiens, HL-60, HL60 cells, three independent experiments, SD < 10%, read-out: Antiproliferative effect IC50, HL60
[1] = tested on: acetylated histone 3 (H3); assay: Western blot, acetylated histone 3 in RPMI-8226 cells; assay type: cell-based, human; details: 24 h, 1, 5, and 10 μM
Experimental: RPMI-8226 cells (1 × 10^6) were seeded overnight and incubated with compound 8f for 24 h on indicated concentrations. Cell extract was prepared by lysing cultured cells with a mammalian protein extraction reagent supplemented with EDTA-free protease inhibitor for 15 min. SDS-PAGE and immunoblot analysis were conducted as described. Antibodies for Ac-H3 (abcom, AB32129) and Ac-ɑ-tubulin (Cell Signaling, 2144) were used.

[2] = tested on: 59 different tumor cell lines; assay: NCI-60 antiproliferative evaluation, whole panel; assay type: cell-based; details: 10 μM, of 59 tumor cell lines
Description: (§1) Then, 8f was submitted to NCI for antiproliferative evaluation against 59 different tumor cell lines. The cancer types of the NCI-60 program include leukemia, non-small cell lung cancer (NSCLC), colon cancer, CNS cancer, melanoma, ovary cancer, renal cancer, prostate cancer, and breast cancer.

EKVX = assay: NCI-60 antiproliferative screening, EKVX; assay type: cell-based; details: Homo sapiens, EKVX (Non-Small Cell Lung Cancer), read-out: Inhibition% values at 10 μM concentration
Description: as §1

NCI-H322M = assay: NCI-60 antiproliferative screening, NCI-H322M; assay type: cell-based; details: Homo sapiens, NCI-H322M (Non-Small Cell Lung Cancer), read-out: Inhibition% values at 10 μM concentration
Description: as §1

NCI-H460 = assay: NCI-60 antiproliferative screening, NCI-H460; assay type: cell-based; details: Homo sapiens, NCI-H460 (Non-Small Cell Lung Cancer), read-out: Inhibition% values at 10 μM concentration
Description: as §1

HCC-2998 = assay: NCI-60 antiproliferative screening, HCC-2998; assay type: cell-based; details: Homo sapiens, HCC-2998 (Colon Cancer), read-out: Inhibition% values at 10 μM concentration
Description: as §1

HCT-15 = assay: NCI-60 antiproliferative screening, HCT-15; assay type: cell-based; details: Homo sapiens, HCT-15 (Colon Cancer), read-out: Inhibition% values at 10 μM concentration
Description: as §1

HT29 = assay: NCI-60 antiproliferative screening, HT29; assay type: cell-based; details: Homo sapiens, HT-29, HT29 (Colon Cancer), read-out: Inhibition% values at 10 μM concentration
Description: as §1

SF-295 = assay: NCI-60 antiproliferative screening, SF-295; assay type: cell-based; details: Homo sapiens, SF-295 (CNS Cancer), read-out: Inhibition% values at 10 μM concentration
Description: as §1

SF-539 = assay: NCI-60 antiproliferative screening, SF-539; assay type: cell-based; details: Homo sapiens, SF-539 (CNS Cancer), read-out: Inhibition% values at 10 μM concentration
Description: as §1

SNB-19 = assay: NCI-60 antiproliferative screening, SNB-19; assay type: cell-based; details: Homo sapiens, SNB-19 (CNS Cancer), read-out: Inhibition% values at 10 μM concentration
Description: as §1

U251 = assay: NCI-60 antiproliferative screening, U251; assay type: cell-based; details: Homo sapiens, U-251, U251 (CNS Cancer), read-out: Inhibition% values at 10 μM concentration
Description: as §1

LOX IMVI = assay: NCI-60 antiproliferative screening, LOX IMVI; assay type: cell-based; details: Homo sapiens, LOX IMVI (Melanoma), read-out: Inhibition% values at 10 μM concentration
Description: as §1

SK-MEL-5 = assay: NCI-60 antiproliferative screening, SK-MEL-5; assay type: cell-based; details: Homo sapiens, SK-MEL-5 (Melanoma), read-out: Inhibition% values at 10 μM concentration
Description: as §1

UACC-257 = assay: NCI-60 antiproliferative screening, UACC-257; assay type: cell-based; details: Homo sapiens, read-out: Inhibition% values at 10 μM concentration
Description: as §1

UACC-62 = assay: NCI-60 antiproliferative screening, UACC-62; assay type: cell-based; details: Homo sapiens, UACC-62 (Melanoma), read-out: Inhibition% values at 10 μM concentration
Description: as §1

IGROV1 = assay: NCI-60 antiproliferative screening, IGROV1; assay type: cell-based; details: Homo sapiens, IGROV-1, IGROV1 (Ovarian Cancer), read-out: Inhibition% values at 10 μM concentration
Description: as §1

OVCAR-5 = assay: NCI-60 antiproliferative screening, OVCAR-5; assay type: cell-based; details: Homo sapiens, OVCAR-5 (Ovarian Cancer), read-out: Inhibition% values at 10 μM concentration
Description: as §1

SK-OV-3 = assay: NCI-60 antiproliferative screening, SK-OV-3; assay type: cell-based; details: Homo sapiens, SK-OV-3 (Ovarian Cancer), read-out: Inhibition% values at 10 μM concentration
Description: as §1

786-0 = assay: NCI-60 antiproliferative screening, 786-0; assay type: cell-based; details: Homo sapiens, 786-0 (Renal Cancer), read-out: Inhibition% values at 10 μM concentration
Description: as §1

A498 = assay: NCI-60 antiproliferative screening, A498; assay type: cell-based; details: Homo sapiens, A498 (Renal Cancer), read-out: Inhibition% values at 10 μM concentration
Description: as §1

CAKI-1 = assay: NCI-60 antiproliferative screening, CAKI-1; assay type: cell-based; details: Homo sapiens, CAKI-1 (Renal Cancer), read-out: Inhibition% values at 10 μM concentration
Description: as §1

UO-31 = assay: NCI-60 antiproliferative screening, UO-31; assay type: cell-based; details: Homo sapiens, UO-31 (Renal Cancer), read-out: Inhibition% values at 10 μM concentration
Description: as §1

PC-3 = assay: NCI-60 antiproliferative screening, PC-3; assay type: cell-based; details: Homo sapiens, PC-3 (Prostate Cancer), read-out: Inhibition% values at 10 μM concentration
Description: as §1

MDA-MB-231/ATCC = assay: NCI-60 antiproliferative screening, MDA-MB-231/ATCC; assay type: cell-based; details: Homo sapiens, MDA-MB-231/ATCC (Breast Cancer), read-out: Inhibition% values at 10 μM concentration
Description: as §1

MDA-MB-468 = assay: NCI-60 antiproliferative screening, MDA-MB-468; assay type: cell-based; details: Homo sapiens, MDA-MB-468 (Breast Cancer), read-out: Inhibition% values at 10 μM concentration
Description: as §1

T2 sequence (P56524 whole entry): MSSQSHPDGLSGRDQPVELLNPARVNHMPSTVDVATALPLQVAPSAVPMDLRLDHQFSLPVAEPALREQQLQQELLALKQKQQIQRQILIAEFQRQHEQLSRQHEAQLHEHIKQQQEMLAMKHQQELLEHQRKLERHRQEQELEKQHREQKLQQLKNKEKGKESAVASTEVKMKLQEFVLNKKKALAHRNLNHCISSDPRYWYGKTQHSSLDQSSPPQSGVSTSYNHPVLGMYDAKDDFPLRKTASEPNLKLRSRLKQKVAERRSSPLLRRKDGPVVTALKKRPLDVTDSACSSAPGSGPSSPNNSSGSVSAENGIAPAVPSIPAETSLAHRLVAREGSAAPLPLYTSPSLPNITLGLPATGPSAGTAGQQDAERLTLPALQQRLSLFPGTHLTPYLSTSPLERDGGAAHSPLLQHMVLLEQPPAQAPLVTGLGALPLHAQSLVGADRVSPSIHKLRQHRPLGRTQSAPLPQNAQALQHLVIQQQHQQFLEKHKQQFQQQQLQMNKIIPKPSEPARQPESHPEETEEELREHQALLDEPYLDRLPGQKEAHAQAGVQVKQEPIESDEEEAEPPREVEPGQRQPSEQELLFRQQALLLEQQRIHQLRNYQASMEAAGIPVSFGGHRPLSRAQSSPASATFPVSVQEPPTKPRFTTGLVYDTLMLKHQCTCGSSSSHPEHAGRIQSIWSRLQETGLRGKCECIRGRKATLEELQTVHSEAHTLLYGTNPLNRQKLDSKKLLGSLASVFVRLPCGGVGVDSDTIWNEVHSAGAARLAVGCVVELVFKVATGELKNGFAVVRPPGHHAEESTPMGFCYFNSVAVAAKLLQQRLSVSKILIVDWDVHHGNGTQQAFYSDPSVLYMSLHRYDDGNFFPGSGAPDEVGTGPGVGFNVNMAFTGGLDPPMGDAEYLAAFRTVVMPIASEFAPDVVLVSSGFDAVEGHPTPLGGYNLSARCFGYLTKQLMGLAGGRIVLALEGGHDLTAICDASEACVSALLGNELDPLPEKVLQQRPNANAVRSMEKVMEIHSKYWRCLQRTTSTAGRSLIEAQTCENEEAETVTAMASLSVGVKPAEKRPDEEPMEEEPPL
T1 sequence (O15379 whole entry): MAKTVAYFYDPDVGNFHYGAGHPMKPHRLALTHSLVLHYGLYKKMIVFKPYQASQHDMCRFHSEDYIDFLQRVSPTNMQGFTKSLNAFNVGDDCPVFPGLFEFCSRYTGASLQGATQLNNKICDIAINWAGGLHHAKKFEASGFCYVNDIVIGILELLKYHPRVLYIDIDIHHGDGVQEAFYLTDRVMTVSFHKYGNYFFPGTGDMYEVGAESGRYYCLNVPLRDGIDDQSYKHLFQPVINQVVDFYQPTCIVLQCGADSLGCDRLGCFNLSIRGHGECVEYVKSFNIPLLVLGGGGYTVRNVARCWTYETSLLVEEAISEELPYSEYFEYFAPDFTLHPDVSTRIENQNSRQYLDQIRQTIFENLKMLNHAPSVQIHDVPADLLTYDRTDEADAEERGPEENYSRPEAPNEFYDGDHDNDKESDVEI
T1 sequence (Q9Y618 395-489 partner limits assumed): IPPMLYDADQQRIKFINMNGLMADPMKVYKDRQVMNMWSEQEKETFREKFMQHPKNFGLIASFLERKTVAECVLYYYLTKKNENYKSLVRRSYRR

**Q.** With `COc1cccc(-c2nc3c(c(-c4cccc(OC)c4)n2)CCN(C(=O)CCCCCCC(=O)NO)C3)c1` [Compound 8f, 8-(2,4-Bis(3-methoxyphenyl)-5,8-dihydropyrido [3,4-d]pyrimidin-7(6H)-yl)-N-hydroxy-8-oxooctanamide] as the molecule, how does the IC50 (HDAC3) read?
**A.** The IC50 was 0.411 µM.

**Q.** What about the “HDAC4 IC50” value (HDAC4) of the same molecule?
**A.** The value was “poor activity”.

**Q.** What about the IC50 (HDAC4) of the same molecule?
**A.** The IC50 was > 10 µM.

**Q.** And the IC50 (HL60)?
**A.** Its IC50 is 3.2 µM.

**Q.** What about the “levels of acetylated histone 3 (H3)” value [1] of the same molecule?
**A.** Its value is “only modest changes”.

**Q.** What about the “number of cell lines with percent inhibitions > 80%” value [2] of the same molecule?
**A.** Its value is 56 cell lines.

**Q.** What about the inhibition at 10 µM (EKVX) of the same molecule?
**A.** Its inhibition at 10 µM is 84.4%.

**Q.** And the inhibition at 10 µM (NCI-H322M)?
**A.** Its inhibition at 10 µM is 89%.

**Q.** And the inhibition at 10 µM (NCI-H460)?
**A.** The inhibition at 10 µM was 95.5%.

**Q.** What about the inhibition at 10 µM (HCC-2998) of the same molecule?
**A.** The inhibition at 10 µM was 100%.

**Q.** What about the inhibition at 10 µM (HCT-15) of the same molecule?
**A.** Its inhibition at 10 µM is 100%.

**Q.** And the inhibition at 10 µM (HT29)?
**A.** Its inhibition at 10 µM is 95.3%.

**Q.** What about the inhibition at 10 µM (SF-295) of the same molecule?
**A.** Its inhibition at 10 µM is 100%.

**Q.** And the inhibition at 10 µM (SF-539)?
**A.** The inhibition at 10 µM was 99%.

**Q.** And the inhibition at 10 µM (SNB-19)?
**A.** The inhibition at 10 µM was 100%.

**Q.** And the inhibition at 10 µM (U251)?
**A.** The inhibition at 10 µM was 100%.

**Q.** And the inhibition at 10 µM (LOX IMVI)?
**A.** The inhibition at 10 µM was 100%.

**Q.** What about the inhibition at 10 µM (SK-MEL-5) of the same molecule?
**A.** Its inhibition at 10 µM is 100%.

**Q.** What about the inhibition at 10 µM (UACC-257) of the same molecule?
**A.** The inhibition at 10 µM was 98.7%.

**Q.** What about the inhibition at 10 µM (UACC-62) of the same molecule?
**A.** Its inhibition at 10 µM is 100%.

**Q.** What about the inhibition at 10 µM (IGROV1) of the same molecule?
**A.** Its inhibition at 10 µM is 100%.

**Q.** And the inhibition at 10 µM (OVCAR-5)?
**A.** The inhibition at 10 µM was 100%.

**Q.** And the inhibition at 10 µM (SK-OV-3)?
**A.** Its inhibition at 10 µM is 100%.

**Q.** And the inhibition at 10 µM (786-0)?
**A.** The inhibition at 10 µM was 89.1%.

**Q.** And the inhibition at 10 µM (A498)?
**A.** The inhibition at 10 µM was 100%.

**Q.** What about the inhibition at 10 µM (CAKI-1) of the same molecule?
**A.** Its inhibition at 10 µM is 100%.

**Q.** What about the inhibition at 10 µM (UO-31) of the same molecule?
**A.** Its inhibition at 10 µM is 100%.

**Q.** What about the inhibition at 10 µM (PC-3) of the same molecule?
**A.** The inhibition at 10 µM was 83.3%.

**Q.** What about the inhibition at 10 µM (MDA-MB-231/ATCC) of the same molecule?
**A.** The inhibition at 10 µM was 100%.

**Q.** What about the inhibition at 10 µM (MDA-MB-468) of the same molecule?
**A.** Its inhibition at 10 µM is 100%.

**Q.** What about the melting point of the same molecule?
**A.** The melting point was 117 to 118 °C.
